Patent publication US5449673A, “10,11-dihydro-10-(3-substituted-1-oxo-2-propyl, propenyl or propynyl)dibenz[b,f][1,4] oxazepine prostaglandin antagonists” (G. D. Searle & Co., priority 1994, dated 1995)
Structures can show the parent of a compound that is named as a salt. Where two headings read alike, the source gives them in different places.

Tests used:
mice = experiment: PBQ Writhing Assay (analgesia in mice); assay type: in vivo, mouse (Charles River male albino mice); details: for responders at 30 mg/kg: 0.5 h, 30 mg per kg, 30 min before PBQ, fraction out of 9 or 10 mice; for rank order of potency in the Writhing Assay: more potent compounds tested
Text: The Writhing Assay is one of the most widely-used experimental procedures for measuring the analgesic activity of different narcotic and nonnarcotic analgesic agents, and involves the continuous, chemically-induced pain of visceral origin to an animal, such as a mouse or rat. [Gyires et al., Arch. int. Pharmacodyn, 267, 131-140 (1984); C. Vander Wende et al., Fed. Proc., 15, 494 (1956); Koster et al., Fed. Proc., 18, 412 (1959); and Witken et al., J. Pharmacol. exp. Ther., 133, 400-408 (1961).] Chemicals which may be used to induce this pain include phenylbenzoquinone (PBQ) and acetic acid. As a result of the chemical irritation to the animal, a characteristic stretching and writhing of the animal (dorsiflexion of the animal's back, extension of its hindlimbs and the strong contraction of its abdominal musculature) will generally occur. […] Drugs which reduce the number of writhes of the animal appear to restore the normal nociceptive threshold of the animal.
Charles River male albino mice, weighing 20 to 30 grams were used in this assay.
Thirty minutes after subcutaneous or intragastric administration to ten mice of 30 mg per kilogram of body weight of a compound of the present invention ("test compound"), […] per 10 g of body weight of a 0.025% w/v solution of PBQ was injected intraperitoneally into each mouse. Ten mice which were given saline in place of a test compound of the invention were used as a control group.
Five minutes later, each mouse was individually placed into a glass beaker for observation, and the number of writhes occurring during the following tenminute period was counted.
A test compound was considered to have produced analgesia in a mouse if, in accordance with the conditions set forth above, and under the test criteria employed for this assay, after the administration of 30 mg per kilogram of body weight of a compound of the present invention to the mouse, the number of writhes elicited by a mouse injected with PBQ was equal to, or less than, one-half the median number of writhes recorded for the saline-treated control group of mice that day, as described by Taber in "Predictive Value of Analgesic Assays in Mice and Rats," Advances in Biochemical Psychopharmacology, 8, 191 (1974).
The standard initial screening dose of a test compound employed in this assay was […] for both routes of administration. If this initial screening dose of the test compound produced analgesia in seven of ten mice, then the effect of additional doses of the test compound on the writhing response was evaluated, and then the ED50 dose was generally calculated. (The slopes of the dose-response curves for all test compounds analyzed were compared as described by Taltarida and Murray, Manual of Pharmacologic Calculations, Page 11 (Springer Verlag, New York, 1981)).
The results for the particular compounds of the present invention analyzed in this assay, and discussed in the examples identified below which correspond thereto, are presented in Table I hereinbelow under the heading "PBQ WRITHING ASSAY". The fractions indicate the number of mice out of 9 or 10 in which the initial screening dose of a test compound produced analgesia. The numbers which are not fractions represent ED50 doses.

[1] = biological target: T1, prostaglandin E2-induced contractions of segments of guinea pig ileum (Cavia porcellus, UniProt A0A286XHJ6); experiment: Prostaglandin (PGE) Antagonism Assay, inhibition of prostaglandin E2-induced contractions of guinea pig ileum segments; parameters: species or system guinea pig (male albino); details: 37° C., Schild plot, read-out: PGE ANTAGONISM IN GUINEA PIG ILEUM (pA2) (converted)
T1 construct: Segments of ileum about 2 cm long were then cut and mounted in a 10-mL tissue bath; from tissue; host or cells: ileum segments of male albino guinea pigs
T1 sequence (A0A286XHJ6 1-405): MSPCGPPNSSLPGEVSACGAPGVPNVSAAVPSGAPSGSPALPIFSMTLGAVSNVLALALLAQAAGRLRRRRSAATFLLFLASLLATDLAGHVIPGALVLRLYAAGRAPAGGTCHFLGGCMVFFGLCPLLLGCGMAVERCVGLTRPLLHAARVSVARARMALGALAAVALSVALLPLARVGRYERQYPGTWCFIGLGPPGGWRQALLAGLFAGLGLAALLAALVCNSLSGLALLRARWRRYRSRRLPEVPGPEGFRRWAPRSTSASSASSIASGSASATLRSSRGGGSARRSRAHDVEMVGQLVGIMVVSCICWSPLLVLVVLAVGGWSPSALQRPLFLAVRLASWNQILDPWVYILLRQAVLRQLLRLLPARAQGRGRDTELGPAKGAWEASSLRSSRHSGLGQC
Experimental: In order to determine the effectiveness of several of the compounds of the present invention ("test compounds") as prostaglandin E2 antagonists,a prostaglandin antagonism assay was conducted, as described below, to determine the ability of these compounds to inhibit prostaglandin E2 -induced contractions of segments of guinea pig ileum.
Male albino guinea pigs weighing 200 to 500 grams were sacrificed by cervical dislocation.
The ileums were then quickly removed from the guinea pigs and placed in a modified Tyrode solution, a solution which is known to those of skill in the art, containing one-half of the usual amount of magnesium ions.
Segments of ileum about 2 cm long were then cut and mounted in a 10-mL tissue bath containing the modified Tyrode solution. The solution was maintained at 37° C. and aerated with a gaseous mixture of 95% oxygen and 5% carbon dioxide.
Submaximal contractions of the ileum segments were then generated by injecting prostaglandin E2 into the bath, and detected isotonically. Data for a control prostaglandin E2 dose response curve plotting concentration of prostaglandin E2 versus number of contractions generated was then obtained by experimentally adjusting the dose of the prostaglandin E2 being injected into the tissue bath, in a manner known by those of skill in the art.
Solutions or suspensions containing an initial amount of a test compound in modified Tyrode solution ("test solutions/suspensions") were then separately substituted for the tissue bath. Each test solution/suspension was then kept in constant contact with the ileum tissue, except for brief periods to drain the bath in preparation for rinsing with fresh test solution/suspension. Different doses of prostaglandin E2 were again injected into the test solutions/suspensions.
A second prostaglandin E2 dose response curve was then generated for PGE2 in the presence of a test compound.
A dose ratio of EC50 doses (that dose of a compound or drug which is necessary to elicit a 50% maximal biological response and, thus, which is necessary to elicit a 50% reduction in the contractions of %he guinea pig ileum segments in this assay) was then calculated from the results of each test in a manner known by those of skill in the art. […]
If the initial concentration of a test compound was determined to be "active," then varying concentrations of the test compound were then assayed.
The pA2 value (a statistical constant which is a common measure of expressing the potency of a particular drug as a competitive antagonist) was then calculated for each test compound by schild plot calculations, as described by H. O. Schild, "pA A New , Scale for the Measurement of Drug Antagonism, " Br. J. Pharmacol, 2, 189 (1947), according to the following mathematical formula: […]

[2] = system: isolated smooth muscle preparations; details: cited from earlier work
[3] = system: urethane-anesthetized rats; details: cited from earlier work
[4] = Mus musculus, po, intragastric, mice, read-out: PBQ WRITHING ASSAY, No. Out of 10 (mice in which the initial screening dose produced analgesia), I.G. (converted)
[5] = Mus musculus, sc, subcutaneous, mice, read-out: PBQ WRITHING ASSAY, No. Out of 10 (mice in which the initial screening dose produced analgesia), S.C. (converted)

Question: For CCCCC(C)(C/C=C\C(=O)N1Cc2ccccc2Oc2ccc(Cl)cc21)O[Si](C)(C)C (centres unmarked) [Example 4, 8-chloro-10,11-dihydro-10-[5-methyl-1-oxo-5-[(trimethylsilyl)oxy]-2Z-nonenyl]-dibenz[b,f][1,4]oxazepine], which responders at 30 mg/kg (mice; [4]) is on record?
Answer: 50%

Question: And the responders at 30 mg/kg (mice; [5])?
Answer: 80%

Question: Which responders at 30 mg/kg (mice; [4]) does the source give for CCCCC(C)(C/C=C/C(=O)N1Cc2ccccc2Oc2ccc(Cl)cc21)O[Si](C)(C)C (centres unmarked) [Example 5, 8-chloro-10,11-dihydro-10-[5-methyl-1-oxo-5-[(trimethylsilyl)oxy]-2E-nonenyl]-dibenz[b,f][1,4]oxazepine] here?
Answer: 30%

Question: What about the responders at 30 mg/kg (mice; [5]) of the same molecule?
Answer: 60%

Question: For CCCCC(C)(O)C/C=C/C(=O)N1Cc2ccccc2Oc2ccc(Cl)cc21 (centres unmarked) [Example 6, 8-chloro-10,11-dihydro-10-(5-hydroxy-5-methyl-1-oxo-2E-nonenyl)dibenz[b,f][1,4]oxazepine], which responders at 30 mg/kg (mice; [4]) is on record?
Answer: 40%

Question: And the responders at 30 mg/kg (mice; [5])?
Answer: 40%

Question: And the Kb [1]?
Answer: 166 nM

Question: What does the source list for CCCCCC(C)(/C=C/C(=O)N1Cc2ccccc2Oc2ccc(Cl)cc21)O[Si](C)(C)C (centres unmarked) [Example 8, 8-chloro-10,11-dihydro-10-[4-methyl-1-oxo-4-[(trimethylsilyl)oxy]-2E-nonenyl]dibenz-[b,f][1,4]oxazepine]?
Answer: responders at 30 mg/kg (mice; [4]): 60%; responders at 30 mg/kg (mice; [5]): 40%

Question: Which responders at 30 mg/kg (mice; [4]) does the source give for CCCCCC(C)(O)/C=C/C(=O)N1Cc2ccccc2Oc2ccc(Cl)cc21 (centres unmarked) [Example 9, 8-chloro-10,11-dihydro-10-(4-hydroxy-4-methyl-1-oxo-2E-nonenyl)dibenz[b,f][1,4]oxazepine] here?
Answer: 50%

Question: What about the responders at 30 mg/kg (mice; [5]) of the same molecule?
Answer: 90%

Question: And the Kb [1]?
Answer: 617 nM

Question: Which results are given for CCCCCC(O)/C=C/C(=O)N1Cc2ccccc2Oc2ccc(Cl)cc21 (centres unmarked) [Example 11]?
Answer: responders at 30 mg/kg (mice; [4]): 20%; responders at 30 mg/kg (mice; [5]): 30%; Kb [1]: 214 nM

Question: Which results are given for CCCCCC(/C=C/C(=O)N1Cc2ccccc2Oc2ccc(Cl)cc21)OC(=O)CN (centres unmarked) [Example 12, glycine, 1-[3-(8-chloro-10,11-dihydrodibenz-[b,f][1,4]oxazepin-10-yl)-3-oxo-1E-propenyl]-hexyl ester, monohydrochloride]?
Answer: responders at 30 mg/kg (mice; [4]): 55.6%; responders at 30 mg/kg (mice; [5]): 30%; rank order of potency in the Writhing Assay (mice): Example 17 > Example 9 > Example 4 > Example 8 > Example 5 > Example 12

Question: What does the source list for CCCCCC(=O)/C=C/C(=O)N1Cc2ccccc2Oc2ccc(Cl)cc21 [Example 13, 8-chloro-10,11-dihydro-10-(1,4-dioxo-2E-nonenyl)dibenz[b,f][1,4]oxazepin]?
Answer: responders at 30 mg/kg (mice; [4]): 10%; responders at 30 mg/kg (mice; [5]): 22.2%

Question: With CCCCCC/C=C/C(=O)N1Cc2ccccc2Oc2ccc(Cl)cc21 [Example 14, 8-chloro-10,11-dihydro-10-(1-oxo-2E-nonenyl)dibenz[b,f][1,4]oxazepine] as the molecule, how does the responders at 30 mg/kg (mice; [4]) read?
Answer: 10%

Question: What about the responders at 30 mg/kg (mice; [5]) of the same molecule?
Answer: 10%

Question: What does the source list for CCCCCC(O)C#CC(=O)N1Cc2ccccc2Oc2ccc(Cl)cc21 (centres unmarked) [Example 15, 8-chloro-10,11-dihydro-10-(4-hydroxy-1-oxo-2-nonynyl)dibenz[b,f][1,4]oxazepine]?
Answer: responders at 30 mg/kg (mice; [4]): 10%; responders at 30 mg/kg (mice; [5]): 30%

Question: What does the source list for O=C(CCC(=O)N1Cc2ccccc2Oc2ccc(Cl)cc21)CCc1ccncc1 [Example 17, 8-chloro-10-[1,4-dioxo-6-(4-pyridinyl)hexyl]-10,11-dihydrodibenz[b,f][1,4]-oxazepine, monohydrochloride]?
Answer: ED50 (mice; Mus musculus, po, intragastric, mice, ED50 dose, read-out: PBQ WRITHING ASSAY, ED50, I.G.): 5.4 mg/kg; most potent compound tested in the Writhing Assay (mice; in words): the most potent compound of the invention tested in this assay; rank order of potency in the Writhing Assay (mice): Example 17 > Example 9 > Example 4 > Example 8 > Example 5 > Example 12; Kb [1]: 102 nM

Question: With O=C(Cc1ccccc1)NNC(=O)N1Cc2ccccc2Oc2ccc(Cl)cc21 [SC-18637] as the molecule, how does the “inhibition of the stimulant actions of prostaglandins” value [2] read?
Answer: inhibit the stimulant actions of prostaglandins on isolated smooth muscle preparations

Question: Which “inhibition of the stimulant actions of prostaglandins” value [2] does the source give for CC(=O)NNC(=O)N1Cc2ccccc2Oc2ccc(Cl)cc21 [SC-19220] here?
Answer: inhibit the stimulant actions of prostaglandins on isolated smooth muscle preparations

Question: And the bladder capacity [3]?
Answer: increased the bladder capacity

Question: And the “voiding efficiency of micturition” value [3]?
Answer: reduced the voiding efficiency of micturition
